Assay results as given in patent US12459912B2 (priority 2020, dated 2025).

Legend:
[1] = molecular target: HRH2 (Histamine Receptor H2) (Homo sapiens, UniProt P25021); test: HRH2/cAMP; format: cell-based
[2] = molecular target: AVPR1A (Arginine Vasopressin Receptor 1A) (Homo sapiens, UniProt P37288); test: AVPR1A/Calcium Flux; format: cell-based
COX1 (Cyclooxygenase 1) = molecular target: T1, COX1 (Cyclooxygenase 1) (Homo sapiens, UniProt P23219); test: COX1/Enzymatic; format: biochemical
T1 construct: purchased BPS Bioscience
T1 sequence (P23219 24-599): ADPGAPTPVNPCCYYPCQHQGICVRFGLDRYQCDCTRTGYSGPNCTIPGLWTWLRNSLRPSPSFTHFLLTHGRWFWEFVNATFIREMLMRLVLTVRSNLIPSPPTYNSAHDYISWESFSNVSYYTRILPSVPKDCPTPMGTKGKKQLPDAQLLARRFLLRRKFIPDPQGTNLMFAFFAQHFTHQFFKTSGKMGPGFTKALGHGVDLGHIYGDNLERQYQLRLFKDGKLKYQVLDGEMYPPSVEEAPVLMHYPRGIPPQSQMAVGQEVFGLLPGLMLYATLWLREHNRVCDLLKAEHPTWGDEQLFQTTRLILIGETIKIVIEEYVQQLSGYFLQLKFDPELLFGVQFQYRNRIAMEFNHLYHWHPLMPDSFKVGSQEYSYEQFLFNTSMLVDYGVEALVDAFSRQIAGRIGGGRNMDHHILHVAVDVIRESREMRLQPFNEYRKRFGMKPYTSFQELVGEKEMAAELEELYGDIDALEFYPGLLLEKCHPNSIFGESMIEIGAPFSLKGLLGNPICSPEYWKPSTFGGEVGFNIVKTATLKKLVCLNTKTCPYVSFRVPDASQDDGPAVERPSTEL

[3] = molecular target: T2, PDE4D2 (cAMP-specific 3′,5′-cyclic phospho-diesterase) (Homo sapiens, UniProt Q08499); test: PDE4D2/Enzymatic; format: biochemical
T2 construct: purchased Signal Chem
T2 sequence (Q08499 303-809 limits assumed): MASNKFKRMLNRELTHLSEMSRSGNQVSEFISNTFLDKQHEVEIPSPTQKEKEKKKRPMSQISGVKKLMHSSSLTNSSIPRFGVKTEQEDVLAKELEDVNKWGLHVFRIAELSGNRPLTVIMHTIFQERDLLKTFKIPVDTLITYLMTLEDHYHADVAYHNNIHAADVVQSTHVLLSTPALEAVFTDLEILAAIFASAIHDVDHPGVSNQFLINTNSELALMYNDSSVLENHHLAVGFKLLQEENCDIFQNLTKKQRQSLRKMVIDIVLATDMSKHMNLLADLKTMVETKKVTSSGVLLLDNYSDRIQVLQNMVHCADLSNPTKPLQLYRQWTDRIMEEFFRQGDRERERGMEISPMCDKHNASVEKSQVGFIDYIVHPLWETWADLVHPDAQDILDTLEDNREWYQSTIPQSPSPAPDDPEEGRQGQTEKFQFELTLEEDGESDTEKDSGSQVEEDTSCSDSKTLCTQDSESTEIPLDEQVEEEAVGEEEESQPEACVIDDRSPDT

[4] = molecular target: CNR1 (Cannabinoid Receptor 1) (Homo sapiens, UniProt P21554); test: CNR1/cAMP; format: cell-based
CNR1 (Cannabinoid Receptor 1), sequence (P21554 whole entry): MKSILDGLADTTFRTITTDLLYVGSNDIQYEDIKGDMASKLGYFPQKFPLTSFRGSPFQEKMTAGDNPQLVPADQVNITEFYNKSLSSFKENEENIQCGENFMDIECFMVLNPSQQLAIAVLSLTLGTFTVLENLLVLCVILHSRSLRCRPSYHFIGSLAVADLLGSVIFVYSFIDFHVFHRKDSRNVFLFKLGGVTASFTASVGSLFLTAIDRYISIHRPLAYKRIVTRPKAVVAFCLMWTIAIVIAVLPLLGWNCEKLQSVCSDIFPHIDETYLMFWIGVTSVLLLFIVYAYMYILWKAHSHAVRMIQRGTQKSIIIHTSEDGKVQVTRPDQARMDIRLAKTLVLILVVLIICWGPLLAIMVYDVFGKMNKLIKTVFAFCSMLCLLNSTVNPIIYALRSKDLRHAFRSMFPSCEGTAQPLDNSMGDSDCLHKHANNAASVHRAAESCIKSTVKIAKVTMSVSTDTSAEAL

[5] = molecular target: NAV1.5 (tetrodotoxin-resistant voltage-gated sodium channel) (Homo sapiens, UniProt Q14524); test: cell-based
KvLQT1/minK = molecular target: T3, KvLQT1/minK (Homo sapiens, UniProt P51787); test: KvLQT1/minK/Ion Channel; format: cell-based
T3 construct: expressed in transfected cells
T3 sequence (P51787 whole entry): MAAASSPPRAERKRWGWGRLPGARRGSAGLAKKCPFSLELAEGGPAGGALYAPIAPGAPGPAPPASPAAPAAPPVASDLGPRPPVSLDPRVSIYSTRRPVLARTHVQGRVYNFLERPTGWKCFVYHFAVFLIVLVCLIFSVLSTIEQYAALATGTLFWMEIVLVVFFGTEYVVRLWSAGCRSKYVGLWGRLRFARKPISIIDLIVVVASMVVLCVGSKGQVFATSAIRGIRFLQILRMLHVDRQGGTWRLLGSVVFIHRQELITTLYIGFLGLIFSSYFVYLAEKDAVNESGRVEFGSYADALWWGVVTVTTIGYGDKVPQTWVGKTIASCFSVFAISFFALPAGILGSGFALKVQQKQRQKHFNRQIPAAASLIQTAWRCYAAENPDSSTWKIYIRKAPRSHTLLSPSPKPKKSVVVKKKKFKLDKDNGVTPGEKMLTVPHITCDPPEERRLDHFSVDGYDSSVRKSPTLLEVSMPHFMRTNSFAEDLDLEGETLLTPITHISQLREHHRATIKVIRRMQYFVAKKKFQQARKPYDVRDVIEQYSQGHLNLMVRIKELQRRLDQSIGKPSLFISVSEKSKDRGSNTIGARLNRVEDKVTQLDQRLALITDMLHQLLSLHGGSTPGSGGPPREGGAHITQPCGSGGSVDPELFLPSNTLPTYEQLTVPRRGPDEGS

[6] = molecular target: DRD2S (Dopamine Receptor D2) (Homo sapiens, UniProt P14416); test: DRD2S/cAMP; format: cell-based
[7] = molecular target: OPRK1 (Opioid Receptor Kappa 1) (Homo sapiens, UniProt P41145); test: OPRK1/cAMP; format: cell-based
OPRK1 (Opioid Receptor Kappa 1), sequence (P41145 whole entry): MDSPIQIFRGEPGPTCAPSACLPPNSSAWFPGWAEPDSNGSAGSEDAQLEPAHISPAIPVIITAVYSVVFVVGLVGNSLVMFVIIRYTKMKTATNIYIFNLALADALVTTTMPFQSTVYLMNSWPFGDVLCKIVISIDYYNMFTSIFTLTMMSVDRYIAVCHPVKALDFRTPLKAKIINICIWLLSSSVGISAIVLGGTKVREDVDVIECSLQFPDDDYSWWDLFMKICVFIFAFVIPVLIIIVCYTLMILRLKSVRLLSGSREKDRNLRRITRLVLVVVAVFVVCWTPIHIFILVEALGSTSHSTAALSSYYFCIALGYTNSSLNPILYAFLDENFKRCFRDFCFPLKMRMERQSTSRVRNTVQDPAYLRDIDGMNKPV

[8] = molecular target: OPRM1 (Opioid Receptor Mu) (Homo sapiens, UniProt P35372); test: cell-based
OPRM1 (Opioid Receptor Mu), sequence (P35372 whole entry): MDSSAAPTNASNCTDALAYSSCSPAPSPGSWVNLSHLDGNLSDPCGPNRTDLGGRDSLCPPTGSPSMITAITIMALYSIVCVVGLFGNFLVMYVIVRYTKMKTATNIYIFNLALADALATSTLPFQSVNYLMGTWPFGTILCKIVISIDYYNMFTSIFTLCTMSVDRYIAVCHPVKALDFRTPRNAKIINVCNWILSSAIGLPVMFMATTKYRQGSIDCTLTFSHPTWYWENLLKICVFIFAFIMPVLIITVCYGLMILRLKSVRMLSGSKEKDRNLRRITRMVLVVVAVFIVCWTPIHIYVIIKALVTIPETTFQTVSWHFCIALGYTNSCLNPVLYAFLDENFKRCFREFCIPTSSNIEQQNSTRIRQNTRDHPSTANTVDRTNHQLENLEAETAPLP

[9] = molecular target: T4, NMDAR (1A/2B) (N-methyl-D-aspartate (NMDA) Glutamate Receptor 1A/2B) (Homo sapiens, UniProt Q05586+Q13224); test: NMDAR (1A/2B)/Ion Channel; format: cell-based
T4 construct: expressed in transfected cells

[10] = molecular target: CHRM1 (Muscarinic acetylcholine Receptor M1) (Homo sapiens, UniProt P11229); test: cell-based
CHRM1 (Muscarinic acetylcholine Receptor M1), sequence (P11229 whole entry): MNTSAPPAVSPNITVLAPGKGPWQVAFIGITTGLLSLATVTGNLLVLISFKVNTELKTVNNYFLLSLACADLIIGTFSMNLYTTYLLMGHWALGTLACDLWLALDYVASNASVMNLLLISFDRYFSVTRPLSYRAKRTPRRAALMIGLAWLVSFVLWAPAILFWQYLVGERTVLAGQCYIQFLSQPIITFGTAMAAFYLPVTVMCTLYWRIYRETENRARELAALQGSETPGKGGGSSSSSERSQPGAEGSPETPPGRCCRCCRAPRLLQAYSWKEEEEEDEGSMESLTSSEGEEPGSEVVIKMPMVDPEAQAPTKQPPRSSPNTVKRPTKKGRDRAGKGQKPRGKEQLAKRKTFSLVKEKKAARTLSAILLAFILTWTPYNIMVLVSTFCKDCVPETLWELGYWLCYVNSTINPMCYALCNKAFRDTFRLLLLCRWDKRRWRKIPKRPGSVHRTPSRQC

[11] = molecular target: DRD1 (Dopamine Receptor D1) (Homo sapiens, UniProt P21728); test: DRD1/cAMP; format: cell-based
DRD1 (Dopamine Receptor D1), sequence (P21728 whole entry): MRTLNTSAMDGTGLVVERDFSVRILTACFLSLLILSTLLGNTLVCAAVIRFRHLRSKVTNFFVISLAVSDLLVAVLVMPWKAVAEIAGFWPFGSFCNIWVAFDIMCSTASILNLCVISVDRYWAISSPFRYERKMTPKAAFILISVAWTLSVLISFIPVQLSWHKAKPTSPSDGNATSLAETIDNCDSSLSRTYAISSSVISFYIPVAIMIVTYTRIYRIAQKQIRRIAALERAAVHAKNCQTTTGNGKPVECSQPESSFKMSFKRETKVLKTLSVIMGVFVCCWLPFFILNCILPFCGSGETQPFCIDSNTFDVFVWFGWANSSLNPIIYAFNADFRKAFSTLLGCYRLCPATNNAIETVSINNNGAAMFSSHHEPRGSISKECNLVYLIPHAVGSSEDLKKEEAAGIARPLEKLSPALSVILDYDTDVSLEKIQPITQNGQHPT

Measured: EC50

AVPR1A (Arginine Vasopressin Receptor 1A), sequence (P37288 whole entry): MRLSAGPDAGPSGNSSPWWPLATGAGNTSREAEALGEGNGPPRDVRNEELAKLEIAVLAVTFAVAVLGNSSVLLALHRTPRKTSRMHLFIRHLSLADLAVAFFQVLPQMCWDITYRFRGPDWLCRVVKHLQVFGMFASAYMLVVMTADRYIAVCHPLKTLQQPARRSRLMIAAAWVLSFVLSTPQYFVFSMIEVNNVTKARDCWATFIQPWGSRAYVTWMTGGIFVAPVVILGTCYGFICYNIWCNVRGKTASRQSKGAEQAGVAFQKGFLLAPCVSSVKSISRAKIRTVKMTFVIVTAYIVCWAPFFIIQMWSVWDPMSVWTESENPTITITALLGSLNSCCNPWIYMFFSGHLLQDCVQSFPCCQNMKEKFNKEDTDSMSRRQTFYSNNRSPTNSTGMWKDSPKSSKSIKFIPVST
HRH2 (Histamine Receptor H2), sequence (P25021 whole entry): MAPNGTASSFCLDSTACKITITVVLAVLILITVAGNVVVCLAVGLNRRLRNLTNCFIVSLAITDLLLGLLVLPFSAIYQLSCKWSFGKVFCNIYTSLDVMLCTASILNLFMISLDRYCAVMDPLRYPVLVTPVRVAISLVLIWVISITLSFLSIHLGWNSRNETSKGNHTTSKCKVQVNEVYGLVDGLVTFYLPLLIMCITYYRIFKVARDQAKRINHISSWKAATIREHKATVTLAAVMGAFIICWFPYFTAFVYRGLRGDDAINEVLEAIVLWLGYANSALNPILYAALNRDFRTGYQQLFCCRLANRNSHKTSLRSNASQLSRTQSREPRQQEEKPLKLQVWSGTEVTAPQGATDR

CNC(C)Cc1ccc2ccsc2c1 (stereo not shown) [drawing 522]
> 10 µM: [1] | [2] | COX1 (Cyclooxygenase 1) | [3] | [4] | [5] | KvLQT1/minK | [6] | [7] | [8] | [9] | [10] | [11]
